Reference: ChEMBL document CHEMBL2440076, “New triarylpyrazoles as broad-spectrum anticancer agents: design, synthesis, and biological evaluation” (Eur J Med Chem, 2013)

Legend:
Type in all cases: functional
NCI-H322M [1] = experiment: Growth inhibition of human NCI-H322M cells assessed as cell growth at 5X10'-6 M after 48 hrs by sulforhodamine B assay; conditions: read-out: Activity
SF-539 = experiment: Growth inhibition of human SF539 cells assessed as cell growth at 5X10'-8 M after 48 hrs by sulforhodamine B assay; conditions: SF-539, 48 h, read-out: Activity
MDA-MB-231 = experiment: Growth inhibition of human MDA-MB-231 cells assessed as cell growth at 5X10'-8 M after 48 hrs by sulforhodamine B assay; conditions: MDA-MB-231, 48 h, read-out: Activity
ACHN = experiment: Growth inhibition of human ACHN cells assessed as cell growth at 5X10'-5 M after 48 hrs by sulforhodamine B assay; conditions: read-out: Activity
SK-MEL-28 = experiment: Growth inhibition of human SK-MEL-28 cells assessed as cell growth at 5X10'-9 M after 48 hrs by sulforhodamine B assay; conditions: SK-MEL-28, 48 h, read-out: Activity
MOLT-4 = experiment: Growth inhibition of human MOLT4 cells assessed as cell growth at 5X10'-9 M after 48 hrs by sulforhodamine B assay; conditions: MOLT-4, 48 h, read-out: Activity
SF-268 = experiment: Growth inhibition of human SF268 cells assessed as cell growth at 5X10'-8 M after 48 hrs by sulforhodamine B assay; conditions: SF-268, 48 h, read-out: Activity
[2] = Growth inhibition of human HCC2998 cells assessed as cell growth at 5X10'-7 M after 48 hrs by sulforhodamine B assay; conditions: HCC 2998, 48 h, read-out: Activity
SK-MEL-5 = experiment: Growth inhibition of human SK-MEL-5 cells assessed as cell growth at 5X10'-6 M after 48 hrs by sulforhodamine B assay; conditions: SK-MEL-5, 48 h, read-out: Activity
SR = experiment: Growth inhibition of human SR cells assessed as cell growth at 5X10'-6 M after 48 hrs by sulforhodamine B assay; conditions: read-out: Activity
UACC-257 [3] = experiment: Growth inhibition of human UACC257 cells assessed as cell growth at 5X10'-5 M after 48 hrs by sulforhodamine B assay; conditions: UACC-257, 48 h, read-out: Activity
BT-549 [4] = experiment: Growth inhibition of human BT549 cells assessed as cell growth at 5X10'-9 M after 48 hrs by sulforhodamine B assay; conditions: BT-549, 48 h, read-out: Activity
Malme-3M = experiment: Growth inhibition of human MALME-3M cells assessed as cell growth at 5X10'-7 M after 48 hrs by sulforhodamine B assay; conditions: read-out: Activity
HT-29 [5] = experiment: Growth inhibition of human HT-29 cells assessed as cell growth at 5X10'-6 M after 48 hrs by sulforhodamine B assay; conditions: HT-29, 48 h, read-out: Activity
SN12C [6] = experiment: Growth inhibition of human SN12C cells assessed as cell growth at 5X10'-6 M after 48 hrs by sulforhodamine B assay; conditions: read-out: Activity
OVCAR-3 [7] = experiment: Growth inhibition of human OVCAR3 cells assessed as cell growth at 5X10'-7 M after 48 hrs by sulforhodamine B assay; conditions: OVCAR-3, 48 h, read-out: Activity
UACC-62 [8] = experiment: Growth inhibition of human UACC62 cells assessed as cell growth at 5X10'-7 M after 48 hrs by sulforhodamine B assay; conditions: UACC-62, 48 h, read-out: Activity
SN12C [9] = experiment: Growth inhibition of human SN12C cells assessed as cell growth at 5X10'-9 M after 48 hrs by sulforhodamine B assay; conditions: read-out: Activity
UACC-257 [10] = experiment: Growth inhibition of human UACC257 cells assessed as cell growth at 5X10'-7 M after 48 hrs by sulforhodamine B assay; conditions: UACC-257, 48 h, read-out: Activity
SN12C [11] = experiment: Growth inhibition of human SN12C cells assessed as cell growth at 5X10'-7 M after 48 hrs by sulforhodamine B assay; conditions: read-out: Activity
NCI-H226 = experiment: Growth inhibition of human NCI-H226 cells assessed as cell growth at 5X10'-5 M after 48 hrs by sulforhodamine B assay; conditions: NCI-H226, 48 h, read-out: Activity
UACC-62 [12] = experiment: Growth inhibition of human UACC62 cells assessed as cell growth at 5X10'-6 M after 48 hrs by sulforhodamine B assay; conditions: UACC-62, 48 h, read-out: Activity
NCI-H322M [13] = experiment: Growth inhibition of human NCI-H322M cells assessed as cell growth at 5X10'-7 M after 48 hrs by sulforhodamine B assay; conditions: read-out: Activity
NCI-H460 = experiment: Growth inhibition of human NCI-H460 cells assessed as cell growth at 5X10'-5 M after 48 hrs by sulforhodamine B assay; conditions: NCI-H460, 48 h, read-out: Activity
SN12C [14] = experiment: Growth inhibition of human SN12C cells assessed as cell growth at 5X10'-5 M after 48 hrs by sulforhodamine B assay; conditions: read-out: Activity
A498 [15] = experiment: Growth inhibition of human A498 cells assessed as cell growth at 5X10'-7 M after 48 hrs by sulforhodamine B assay; conditions: A498, 48 h, read-out: Activity
A498 [16] = experiment: Growth inhibition of human A498 cells assessed as cell growth at 5X10'-8 M after 48 hrs by sulforhodamine B assay; conditions: A498, 48 h, read-out: Activity
SNB-19 = experiment: Growth inhibition of human SNB19 cells assessed as cell growth at 5X10'-8 M after 48 hrs by sulforhodamine B assay; conditions: SNB-19, 48 h, read-out: Activity
OVCAR-3 [17] = experiment: Growth inhibition of human OVCAR3 cells assessed as cell growth at 5X10'-6 M after 48 hrs by sulforhodamine B assay; conditions: OVCAR-3, 48 h, read-out: Activity
NCI-H522 = experiment: Growth inhibition of human NCI-H522 cells assessed as cell growth at 5X10'-6 M after 48 hrs by sulforhodamine B assay; conditions: NCI-H522, 48 h, read-out: Activity
PC-3 = experiment: Growth inhibition of human PC3 cells assessed as cell growth at 5X10'-7 M after 48 hrs by sulforhodamine B assay; conditions: PC-3, 48 h, read-out: Activity
M14 = experiment: Growth inhibition of human M14 cells assessed as cell growth at 5X10'-5 M after 48 hrs by sulforhodamine B assay; conditions: M14, 48 h, read-out: Activity
BT-549 [18] = experiment: Growth inhibition of human BT549 cells assessed as cell growth at 5X10'-7 M after 48 hrs by sulforhodamine B assay; conditions: BT-549, 48 h, read-out: Activity
HT-29 [19] = experiment: Growth inhibition of human HT-29 cells assessed as cell growth at 5X10'-7 M after 48 hrs by sulforhodamine B assay; conditions: HT-29, 48 h, read-out: Activity
UACC-62 [20] = experiment: Growth inhibition of human UACC62 cells assessed as cell growth at 5X10'-8 M after 48 hrs by sulforhodamine B assay; conditions: UACC-62, 48 h, read-out: Activity
MCF7 = experiment: Growth inhibition of human MCF7 cells assessed as cell growth at 5X10'-7 M after 48 hrs by sulforhodamine B assay; conditions: MCF7, 48 h, read-out: Activity
[21] = Growth inhibition of human HCC2998 cells assessed as cell growth at 5X10'-5 M after 48 hrs by sulforhodamine B assay; conditions: HCC 2998, 48 h, read-out: Activity
NCI-H322M [22] = experiment: Growth inhibition of human NCI-H322M cells assessed as cell growth at 5X10'-8 M after 48 hrs by sulforhodamine B assay; conditions: read-out: Activity

Row | SMILES | growth at 5 µM (NCI-H322M [1]) [%] | growth at 0.05 µM (SF-539) [%] | growth at 0.05 µM (MDA-MB-231) [%] | growth at 50 µM (ACHN) [%] | growth at 0.005 µM (SK-MEL-28) [%] | growth at 0.005 µM (MOLT-4) [%] | growth at 0.05 µM (SF-268) [%] | growth at 0.5 µM [2] [%] | growth at 5 µM (SK-MEL-5) [%] | growth at 5 µM (SR) [%] | growth at 50 µM (UACC-257 [3]) [%] | growth at 0.005 µM (BT-549 [4]) [%] | growth at 0.5 µM (Malme-3M) [%] | growth at 5 µM (HT-29 [5]) [%] | growth at 5 µM (SN12C [6]) [%] | growth at 0.5 µM (OVCAR-3 [7]) [%] | growth at 0.5 µM (UACC-62 [8]) [%] | growth at 0.005 µM (SN12C [9]) [%] | growth at 0.5 µM (UACC-257 [10]) [%] | growth at 0.5 µM (SN12C [11]) [%] | other results
1 | COc1cc(-c2nn(-c3cccc(NC(=O)c4cccc(C(F)(F)F)c4)c3)cc2-c2ccncc2)ccc1Cl | 52 | 94 | 97 | 14 | 103 | 99 | 93 | 105 | -38 | -3 | 48 | 99 | 89 | 5 | 41 | 98 | 83 | 97 | 87 | 92 | growth at 50 µM (NCI-H226): -7%; growth at 5 µM (UACC-62 [12]): 27%; growth at 0.5 µM (NCI-H322M [13]): 87%; growth at 50 µM (NCI-H460): -10%; growth at 50 µM (SN12C [14]): 24%; growth at 0.5 µM (A498 [15]): 61%; growth at 0.05 µM (A498 [16]): 80%; growth at 0.05 µM (SNB-19): 96%; growth at 5 µM (OVCAR-3 [17]): -28%; growth at 5 µM (NCI-H522): -10%; growth at 0.5 µM (PC-3): 71%; growth at 50 µM (M14): 12%; growth at 0.5 µM (BT-549 [18]): 102%; growth at 0.5 µM (HT-29 [19]): 86%; growth at 0.05 µM (UACC-62 [20]): 96%; growth at 0.5 µM (MCF7): 81%; growth at 50 µM [21]: -17%; growth at 0.05 µM (NCI-H322M [22]): 88%
2 | O=C(Nc1cccc(-n2cc(-c3ccncc3)c(-c3ccc(Cl)c(O)c3)n2)c1)c1ccc(N2CCOCC2)c(C(F)(F)F)c1 | 76 | 93 | 93 | 8 | 104 | 99 | 93 | 108 | 31 | 18 | -9 | 100 | 89 | 79 | 70 | 106 | 97 | 98 | 90 | 97 | growth at 50 µM (NCI-H226): 58%; growth at 5 µM (UACC-62 [12]): 39%; growth at 0.5 µM (NCI-H322M [13]): 114%; growth at 50 µM (NCI-H460): -10%; growth at 50 µM (SN12C [14]): 39%; growth at 0.5 µM (A498 [15]): 89%; growth at 0.05 µM (A498 [16]): 83%; growth at 0.05 µM (SNB-19): 104%; growth at 5 µM (OVCAR-3 [17]): 49%; growth at 5 µM (NCI-H522): 29%; growth at 0.5 µM (PC-3): 85%; growth at 50 µM (M14): -50%; growth at 0.5 µM (BT-549 [18]): 111%; growth at 0.5 µM (HT-29 [19]): 102%; growth at 0.05 µM (UACC-62 [20]): 100%; growth at 0.5 µM (MCF7): 78%; growth at 50 µM [21]: 4%; growth at 0.05 µM (NCI-H322M [22]): 104%
3 | O=C(Nc1cccc(-n2cc(-c3ccncc3)c(-c3ccc(Cl)c(O)c3)n2)c1)Nc1cc(C(F)(F)F)cc(C(F)(F)F)c1 | 3 | 94 | 92 | -95 | 101 | 106 | 103 | 92 | -94 | -11 | -82 | 99 | 77 | -54 | 2 | 43 | 69 | 96 | 84 | 72 | growth at 50 µM (NCI-H226): -58%; growth at 5 µM (UACC-62 [12]): -38%; growth at 0.5 µM (NCI-H322M [13]): 84%; growth at 50 µM (NCI-H460): -78%; growth at 50 µM (SN12C [14]): -48%; growth at 0.5 µM (A498 [15]): 64%; growth at 0.05 µM (A498 [16]): 86%; growth at 0.05 µM (SNB-19): 99%; growth at 5 µM (OVCAR-3 [17]): -70%; growth at 5 µM (NCI-H522): -28%; growth at 0.5 µM (PC-3): 41%; growth at 50 µM (M14): -86%; growth at 0.5 µM (BT-549 [18]): 109%; growth at 0.5 µM (HT-29 [19]): 72%; growth at 0.05 µM (UACC-62 [20]): 92%; growth at 0.5 µM (MCF7): 52%; growth at 50 µM [21]: -90%; growth at 0.05 µM (NCI-H322M [22]): 104%
